Patent US8476043B2, “Inhibitors for the soluble epoxide hydrolase” (The Regents of the University of California, priority 2004, dated 2013)

These molecules were tested against T1, human sEH (Homo sapiens, UniProt P34913) (assay: sEH inhibition, fluorescent assay with cyano(6-methoxy-naphthalen-2-yl)methyl trans-[(3-phenyloxiran-2-yl)methyl]carbonate as substrate). Details: not given.
T1 construct: made in house
T1 sequence (P34913 1-555): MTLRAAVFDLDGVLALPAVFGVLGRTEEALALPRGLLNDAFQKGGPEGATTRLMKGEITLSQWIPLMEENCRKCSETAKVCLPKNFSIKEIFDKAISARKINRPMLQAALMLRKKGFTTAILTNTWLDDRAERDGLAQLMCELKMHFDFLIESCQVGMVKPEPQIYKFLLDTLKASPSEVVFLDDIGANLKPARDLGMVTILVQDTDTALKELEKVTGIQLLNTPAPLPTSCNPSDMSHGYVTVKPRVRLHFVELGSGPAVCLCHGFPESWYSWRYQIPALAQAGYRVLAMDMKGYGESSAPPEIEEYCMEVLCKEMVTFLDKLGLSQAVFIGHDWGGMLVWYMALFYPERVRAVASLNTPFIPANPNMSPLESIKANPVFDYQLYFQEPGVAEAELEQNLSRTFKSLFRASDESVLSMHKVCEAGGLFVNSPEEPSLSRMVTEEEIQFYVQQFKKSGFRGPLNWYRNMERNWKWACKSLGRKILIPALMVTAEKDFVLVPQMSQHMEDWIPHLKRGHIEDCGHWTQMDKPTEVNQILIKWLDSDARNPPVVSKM
Assay type: biochemical
Procedure: Recombinant mouse sEH and human sEH were produced in a baculovirus expression system and purified by affinity chromatography. […] Protein concentration was quantified by using the Pierce BCA assay using Fraction V bovine serum albumin as the calibrating standard.
Enzyme activity was measured by monitoring the appearance of 6-methoxy-2-naphthaldehyde. Assays were performed in triplicate. […] IC50 values were determined by regression of at least five datum points, with a minimum of two datum points in the linear region of the curve on either side of the IC50 values. The curve was generated from at least three separate runs, each in triplicate.

Structure (SMILES) | IC50
O=C(NC1CCC(OC2CCCCC2)CC1)NC12CC3CC(CC(C3)C1)C2 (centres unmarked) [Compound 1097] | 10 ± 10 nM

Same assay, conditions: 792 vs. 687; 1001, 1002 and 798 vs. the sulfonylamides

Structure (SMILES) | fold decrease in inhibition potency on human sEH
CCNC(=O)CCCCCCCCCCCNC(=O)NC12CC3CC(CC(C3)C1)C2 [Compound 792, 1-(1-Adamantyl)-3-(11-ethylaminocarbonylundecyl)urea] | 1.5 fold

Same assay, conditions: Table 5; fluorescent-based assay, 0.96 nM human sEH, pH 7.0, [S] = 5 μM; read-out: Human sEH IC50

Structure (SMILES) | IC50
CCNC(=O)CCCCCCCCCCCNC(=O)NC12CC3CC(CC(C3)C1)C2 [Compound 792, 1-(1-Adamantyl)-3-(11-ethylaminocarbonylundecyl)urea] | 4.3 nM
CC(C)=CCCC(C)CCOC(=O)CCCNC(=O)NC12CC3CC(CC(C3)C1)C2 (centres unmarked) [Compound 798, 4-(3-Adamantan-1-yl-ureido) butyric Acid 3,7-Dimethyl-oct-6-enyl Ester] | 7.6 nM

Same assay, conditions: Table 18b; fluorescent assay with cyano(6-methoxy-naphthalen-2-yl)methyl trans-[(3-phenyloxiran-2-yl)methyl]carbonate as substrate; mean ± SD; read-out: IC50

Structure (SMILES) | IC50
O=C(NC12CC3CC(CC(C3)C1)C2)N[C@H]1CC[C@H](OC(=O)c2ccc([N+](=O)[O-])cc2)CC1 (relative stereo) [Compound 1076, trans-4-Nitro-benzoic acid 4-(3-tricyclo[3.3.1.13,7]decan-1-yl-ureido)-cyclohexyl ester] | 10 ± 10 nM
O=C(NC1CCCC(C(=O)NCCOCCO)C1)NC12CC3CC(CC(C3)C1)C2 (centres unmarked) [Compound 1022] | 40 ± 10 nM
O=C(CC12CC3CC(CC(C3)C1)C2)NC1CCC(O)CC1 (centres unmarked) [Compound 1063-1] | 50 ± 10 nM
O=C(CC12CC3CC(CC(C3)C1)C2)NCCCCCOCCOCCOCc1ccccc1 [Compound 1063-2] | 10 ± 10 nM
O=C(CC12CC3CC(CC(C3)C1)C2)NC12CC3CC(CC(O)(C3)C1)C2 [Compound 1064] | 40 ± 10 nM
CCOCCOCCOCCOC(=O)CCCCCCCCCCCNC(=O)NC12CC3CC(CC(C3)C1)C2 [Compound 1067] | 10 ± 10 nM
CCCCCOC(=O)CCCNC(=O)C12CC3CC(CC(C3)C1)C2 [Compound 1068] | 390 ± 10 nM
COCOc1cc(F)c(COC2CCC(NC(=O)NC34CC5CC(CC(C5)C3)C4)CC2)c(F)c1 (centres unmarked) [Compound 1105] | 10 ± 10 nM
COCOc1cc(F)c(COC2CCC(NC(=O)NC34CC5CC(CC(C5)C3)C4)CC2)c(F)c1 (centres unmarked) [Compound 1106] | 10 ± 10 nM
CCCCCNC(=O)NCCOCc1ccc2ccccc2c1 [Compound 1116] | 260 ± 10 nM
O=C(NCCOCc1ccc2ccccc2c1)NCCOCc1ccc2ccccc2c1 [Compound 1117] | 1120 ± 10 nM
CCOCCOCCOCCCCCNC(=O)NC1C2CC3CC(C2)CC1C3 (centres unmarked) [Compound 1128] | 10 ± 10 nM
CCOCCOCCOCCCCCCNC(=O)NC12CC3CC(CC(C3)C1)C2 [Compound 1130] | 10 ± 10 nM
O=C(NCCCCCOCCCN1CCS(=O)(=O)CC1)NC12CC3CC(CC(C3)C1)C2 [Compound 1131] | 10 ± 10 nM
O=C(NC1CCC(O)CC1)C12CC3CC(CC(C3)C1)C2 (centres unmarked) [Compound 1142] | 10 ± 10 nM
O=C(NC1CCC(OCc2ccccc2C(F)(F)F)CC1)NC12CC3CC(CC(C3)C1)C2 (centres unmarked) [Compound 1143] | 10 ± 10 nM
O=C(NC1CCC(OCc2ccccc2OC(F)(F)F)CC1)NC12CC3CC(CC(C3)C1)C2 (centres unmarked) [Compound 1144] | 10 ± 10 nM

Structure (SMILES) | IC50
O=C(Nc1ccccc1)NC1CCC(OCc2c(F)cccc2F)CC1 (centres unmarked) [Compound 1147] | 10 ± 10 nM
O=C(Nc1ccccc1)NC1CCC(OCc2c(F)cccc2F)CC1 (centres unmarked) [Compound 1148] | 10 ± 10 nM
O=C(NC1CCC(OCc2ccccc2F)CC1)NC12CC3CC(CC(C3)C1)C2 (centres unmarked) [Compound 1150] | 10 ± 10 nM
O=C(Nc1cccc(C(=O)NCCN2CCOCC2)c1)NC12CC3CC(CC(C3)C1)C2 [Compound 1165] | 60 ± 10 nM
CCOCCOCCOCCCCCNC(=O)NC1C2CC3CC(C2)CC1C3 (centres unmarked) [Compound 1172] | 10 ± 10 nM
O=C(NC1CCC(C(=O)O)CC1)NC12CC3CC(CC(C3)C1)C2 (centres unmarked) [Compound 1173] | 10 ± 10 nM
O=C(Nc1cc(O)ccc1Cl)NC12CC3CC(CC(C3)C1)C2 [Compound 1189] | 20 ± 10 nM
COc1ccc(NC(=O)NC23CC4CC(CC(C4)C2)C3)cc1O [Compound 1191] | 10 ± 10 nM
CC(=O)c1cccc(NC(=O)NC23CC4CC(CC(C4)C2)C3)c1 [Compound 1192] | 10 ± 10 nM
CC(=O)Oc1cccc(NC(=O)NC23CC4CC(CC(C4)C2)C3)c1 [Compound 1193] | 10 ± 10 nM
CCC(=O)Oc1cccc(NC(=O)NC23CC4CC(CC(C4)C2)C3)c1 [Compound 1194] | 10 ± 10 nM
O=C(NCCCCCOCCN1CCOCC1)NC12CC3CC(CC(C3)C1)C2 [Compound 1196] | 10 ± 10 nM
O=C(Nc1ccc(OCCN2CCOCC2)cc1)NC12CC3CC(CC(C3)C1)C2 [Compound 1197] | 10 ± 10 nM
O=C(Nc1cccc(C(=O)NCCN2CCCC2)c1)NC12CC3CC(CC(C3)C1)C2 [Compound 1198] | 10 ± 10 nM
O=C(NC1CCCCC1)Oc1cccc(-c2ccccc2)c1 [Compound 1229] | 920 ± 10 nM
Cc1c(COC(=O)NC2CCCCC2)cccc1-c1ccccc1 [Compound 1230] | 660 ± 10 nM

The remaining lines, values ahead:

IC50 | Structure (SMILES)
70 ± 10 nM | O=C(CCCCCCOCCCOCCCc1ccccc1)NC12CC3CC(CC(C3)C1)C2 [Compound 1023]
20 ± 10 nM | O=C(CCCCCCOCCCc1ccccc1)NC12CC3CC(CC(C3)C1)C2 [Compound 1027]
10 ± 10 nM | O=C(CCCCCCOCCCCc1ccccc1)NC12CC3CC(CC(C3)C1)C2 [Compound 1028]
10 ± 10 nM | O=C(NCCCCCOCCCCCN1CCS(=O)(=O)CC1)NC12CC3CC(CC(C3)C1)C2 [Compound 1031]
10 ± 10 nM | O=C(CCCCCCOCCCCCc1ccccc1)NC12CC3CC(CC(C3)C1)C2 [Compound 1062]
10 ± 10 nM | CCOC(=O)c1ccc(C(OC(=O)C2CCCC(NC(=O)NC34CC5CC(CC(C5)C3)C4)C2)c2ccccc2)cc1 (centres unmarked) [Compound 1066]
30 ± 10 nM | O=C(CCCCCCOCCc1ccccc1)NC12CC3CC(CC(C3)C1)C2 [Compound 1070]
10 ± 10 nM | O=C(NC1CCC(OC(=O)c2ccccc2)CC1)NC12CC3CC(CC(C3)C1)C2 (centres unmarked) [Compound 1074]
10 ± 10 nM | O=C(CCCCCNC(=O)NC12CC3CC(CC(C3)C1)C2)NC(C(=O)NC(C(=O)O)c1c[nH]c2ccccc12)c1ccccc1 (centres unmarked) [Compound 1084]
10 ± 10 nM | O=C(CCCCCCOCCCCCCc1ccccc1)NC12CC3CC(CC(C3)C1)C2 [Compound 1125]
10 ± 10 nM | O=C(NCCCC(=O)OC(c1ccccc1)c1ccccc1)NC12CC3CC(CC(C3)C1)C2 [Compound 1164]
60 ± 10 nM | O=C(Nc1cccc(C(=O)NCCCN2CCOCC2)c1)NC12CC3CC(CC(C3)C1)C2 [Compound 1166]
10 ± 10 nM | O=C(Nc1ccc(C(=O)O)cc1)NC12CC3CC(CC(C3)C1)C2 [Compound 1177]
10 ± 10 nM | O=C(O)Cc1ccc(NC(=O)NC23CC4CC(CC(C4)C2)C3)cc1 [Compound 1178]
10 ± 10 nM | O=C(Nc1cccc(C(=O)OC(c2ccccc2)c2ccccc2)c1)NC12CC3CC(CC(C3)C1)C2 [Compound 1182]
20 ± 10 nM | O=C(Nc1ccc(O)cc1)NC12CC3CC(CC(C3)C1)C2 [Compound 1183]
10 ± 10 nM | CCOC(=O)COc1ccc(NC(=O)NC23CC4CC(CC(C4)C2)C3)cc1 [Compound 1184]

IC50 | Structure (SMILES)
140 ± 10 nM | O=C(O)COc1ccc(NC(=O)NC23CC4CC(CC(C4)C2)C3)cc1 [Compound 1185]
10 ± 10 nM | CCOC(=O)C(C)Oc1ccc(NC(=O)NC23CC4CC(CC(C4)C2)C3)cc1 (centres unmarked) [Compound 1186]
10 ± 10 nM | CC(Oc1ccc(NC(=O)NC23CC4CC(CC(C4)C2)C3)cc1)C(=O)O (centres unmarked) [Compound 1187]
10 ± 10 nM | O=C(Nc1cccc(Oc2ccccc2)c1)NC12CC3CC(CC(C3)C1)C2 [Compound 1195]
170 ± 10 nM | O=C(O)CCCCCNC(=O)NC12CC3CC(CC(C3)C1)C2 [Compound 1213]
10 ± 10 nM | O=C(O)CCCCCCCNC(=O)NC12CC3CC(CC(C3)C1)C2 [Compound 1214]
10 ± 10 nM | CC(=O)c1ccc(NC(=O)NC23CC4CC(CC(C4)C2)C3)cc1 [Compound 1217]
10 ± 10 nM | O=C(Nc1cccc(C(=O)c2ccccc2)c1)NC12CC3CC(CC(C3)C1)C2 [Compound 1218]
10 ± 10 nM | O=C(Nc1ccc(C(=O)c2ccccc2)cc1)NC12CC3CC(CC(C3)C1)C2 [Compound 1219]
10 ± 10 nM | CC(=O)Oc1ccc(NC(=O)NC23CC4CC(CC(C4)C2)C3)cc1 [Compound 1220]
10 ± 10 nM | CCC(=O)Oc1ccc(NC(=O)NC23CC4CC(CC(C4)C2)C3)cc1 [Compound 1221]
10 ± 10 nM | O=C(Nc1cccc(OC(=O)c2ccccc2)c1)NC12CC3CC(CC(C3)C1)C2 [Compound 1222]
10 ± 10 nM | O=C(O)CCc1ccc(NC(=O)NC23CC4CC(CC(C4)C2)C3)cc1 [Compound 1223]
10 ± 10 nM | O=C(O)CCCc1ccc(NC(=O)NC23CC4CC(CC(C4)C2)C3)cc1 [Compound 1224]
20 ± 10 nM | O=C(O)Cc1cccc(NC(=O)NC23CC4CC(CC(C4)C2)C3)c1 [Compound 1225]
10 ± 10 nM | O=C(O)CCc1cccc(NC(=O)NC23CC4CC(CC(C4)C2)C3)c1 [Compound 1226]
10 ± 10 nM | O=C(Cc1ccc(NC(=O)NC23CC4CC(CC(C4)C2)C3)cc1)NC(C(=O)NCC(C(=O)O)c1c[nH]c2ccccc12)c1ccccc1 (centres unmarked) [Compound 1425]
